The source made the active and inactive calls. No rule for the calls is given here.
How the values were obtained:
Format in all cases: functional
[1] = Antioxidant activity assessed as metal chelating activity by measuring inhibition of ferrozine-Fe2+ complex formation at 25 to 100 ug/ml
Aspergillus flavus [2] = assay: Antimicrobial activity against Aspergillus flavus MTCC 1973 at 500 ug/ml after 72 hrs by cup plate method; details: MTCC 1973, 72 h, read-out: IZ
Aspergillus flavus [3] = assay: Antimicrobial activity against Aspergillus flavus MTCC 1973 at 750 ug/ml after 72 hrs by cup plate method; details: MTCC 1973, 72 h, read-out: IZ
Aspergillus flavus [4] = assay: Antimicrobial activity against Aspergillus flavus MTCC 1973 at 1000 ug/ml after 72 hrs by cup plate method; details: MTCC 1973, 72 h, read-out: IZ
Aspergillus terreus [5] = assay: Antimicrobial activity against Aspergillus terreus MTCC 1782 at 500 ug/ml after 72 hrs by cup plate method; details: MTCC 1782, 72 h, read-out: IZ
Aspergillus terreus [6] = assay: Antimicrobial activity against Aspergillus terreus MTCC 1782 at 750 ug/ml after 72 hrs by cup plate method; details: MTCC 1782, 72 h, read-out: IZ
Aspergillus terreus [7] = assay: Antimicrobial activity against Aspergillus terreus MTCC 1782 at 1000 ug/ml after 72 hrs by cup plate method; details: MTCC 1782, 72 h, read-out: IZ
Aspergillus oryzae [8] = assay: Antimicrobial activity against Aspergillus oryzae MTCC 3567 at 500 ug/ml after 72 hrs by cup plate method; details: MTCC 3567, 72 h, read-out: IZ
Aspergillus oryzae [9] = assay: Antimicrobial activity against Aspergillus oryzae MTCC 3567 at 750 ug/ml after 72 hrs by cup plate method; details: MTCC 3567, 72 h, read-out: IZ
Aspergillus oryzae [10] = assay: Antimicrobial activity against Aspergillus oryzae MTCC 3567 at 1000 ug/ml after 72 hrs by cup plate method; details: MTCC 3567, 72 h, read-out: IZ
Aspergillus niger [11] = assay: Antimicrobial activity against Aspergillus niger MTCC 281 at 500 ug/ml after 72 hrs by cup plate method; details: MTCC 281, 72 h, read-out: IZ
Aspergillus niger [12] = assay: Antimicrobial activity against Aspergillus niger MTCC 281 at 750 ug/ml after 72 hrs by cup plate method; details: MTCC 281, 72 h, read-out: IZ
Aspergillus niger [13] = assay: Antimicrobial activity against Aspergillus niger MTCC 281 at 1000 ug/ml after 72 hrs by cup plate method; details: MTCC 281, 72 h, read-out: IZ
Pseudomonas aeruginosa [14] = assay: Antimicrobial activity against Pseudomonas aeruginosa MTCC 1688 at 500 ug/ml after 24 hrs by cup plate method; details: MTCC 1688, 24 h, read-out: IZ
Pseudomonas aeruginosa [15] = assay: Antimicrobial activity against Pseudomonas aeruginosa MTCC 1688 at 750 ug/ml after 24 hrs by cup plate method; details: MTCC 1688, 24 h, read-out: IZ
Pseudomonas aeruginosa [16] = assay: Antimicrobial activity against Pseudomonas aeruginosa MTCC 1688 at 1000 ug/ml after 24 hrs by cup plate method; details: MTCC 1688, 24 h, read-out: IZ
Klebsiella pneumoniae [17] = assay: Antimicrobial activity against Klebsiella pneumoniae NCTC 13368 at 500 ug/ml after 24 hrs by cup plate method; details: NCTC 13368, 24 h, read-out: IZ
Klebsiella pneumoniae [18] = assay: Antimicrobial activity against Klebsiella pneumoniae NCTC 13368 at 750 ug/ml after 24 hrs by cup plate method; details: NCTC 13368, 24 h, read-out: IZ
Klebsiella pneumoniae [19] = assay: Antimicrobial activity against Klebsiella pneumoniae NCTC 13368 at 1000 ug/ml after 24 hrs by cup plate method; details: NCTC 13368, 24 h, read-out: IZ
Staphylococcus aureus [20] = assay: Antimicrobial activity against Staphylococcus aureus ATCC 29513 at 500 ug/ml after 24 hrs by cup plate method; details: ATCC 29513, 24 h, read-out: IZ
Staphylococcus aureus [21] = assay: Antimicrobial activity against Staphylococcus aureus ATCC 29513 at 750 ug/ml after 24 hrs by cup plate method; details: ATCC 29513, 24 h, read-out: IZ
Staphylococcus aureus [22] = assay: Antimicrobial activity against Staphylococcus aureus ATCC 29513 at 1000 ug/ml after 24 hrs by cup plate method; details: ATCC 29513, 24 h, read-out: IZ
Escherichia coli [23] = assay: Antimicrobial activity against Escherichia coli MTCC 723 at 500 ug/ml after 24 hrs by cup plate method; details: MTCC 723, 24 h, read-out: IZ
Escherichia coli [24] = assay: Antimicrobial activity against Escherichia coli MTCC 723 at 750 ug/ml after 24 hrs by cup plate method; details: MTCC 723, 24 h, read-out: IZ
Escherichia coli [25] = assay: Antimicrobial activity against Escherichia coli MTCC 723 at 1000 ug/ml after 24 hrs by cup plate method; details: MTCC 723, 24 h, read-out: IZ

Row | SMILES | zone of inhibition at 500 µg/mL (Aspergillus terreus [5]) | zone of inhibition at 750 µg/mL (Aspergillus terreus [6]) | zone of inhibition at 1000 µg/mL (Aspergillus terreus [7]) | zone of inhibition at 500 µg/mL (Aspergillus oryzae [8]) | zone of inhibition at 750 µg/mL (Aspergillus oryzae [9]) | zone of inhibition at 1000 µg/mL (Aspergillus oryzae [10]) | zone of inhibition at 500 µg/mL (Aspergillus niger [11]) | zone of inhibition at 750 µg/mL (Aspergillus niger [12]) | zone of inhibition at 1000 µg/mL (Aspergillus niger [13]) | zone of inhibition at 500 µg/mL (Pseudomonas aeruginosa [14]) | zone of inhibition at 750 µg/mL (Pseudomonas aeruginosa [15]) | zone of inhibition at 1000 µg/mL (Pseudomonas aeruginosa [16]) | zone of inhibition at 500 µg/mL (Klebsiella pneumoniae [17]) | zone of inhibition at 750 µg/mL (Klebsiella pneumoniae [18]) | zone of inhibition at 1000 µg/mL (Klebsiella pneumoniae [19]) | zone of inhibition at 500 µg/mL (Staphylococcus aureus [20]) | zone of inhibition at 750 µg/mL (Staphylococcus aureus [21]) | zone of inhibition at 1000 µg/mL (Staphylococcus aureus [22]) | zone of inhibition at 500 µg/mL (Escherichia coli [23]) | zone of inhibition at 750 µg/mL (Escherichia coli [24]) | other results
1 | Cc1ccc(C2=CC(c3c(-c4ccccc4)[nH]c4ccc(C)cc34)c3c(nc4oc(=O)c(C#N)c(N)c4c3N)O2)cc1 (centres undefined) | 9 mm | 4 mm | 4 mm | 10 mm | 11 mm | 10 mm | 0 mm | 0 mm | 0 mm | 9 mm | 6 mm | 4 mm | 11 mm | 10 mm | 10 mm | 3 mm | 3 mm | 0 mm | 10 mm | 10 mm | Activity [1]: Active; zone of inhibition at 500 µg/mL (Aspergillus flavus [2]): 12 mm; zone of inhibition at 750 µg/mL (Aspergillus flavus [3]): 12 mm; zone of inhibition at 1000 µg/mL (Aspergillus flavus [4]): 13 mm; zone of inhibition at 1000 µg/mL (Escherichia coli [25]): 10 mm
2 | Cc1ccc(C2=CC(c3c(-c4ccccc4)[nH]c4ccccc34)c3c(N)n[nH]c3O2)cc1 (centres undefined) | 4 mm | 4 mm | 4 mm | 7 mm | 7 mm | 7 mm | 9 mm | 9 mm | 5 mm | 8 mm | 6 mm | 6 mm | 4 mm | 3 mm | 2 mm | 5 mm | 3 mm | 3 mm | 8 mm | 8 mm | Activity [1]: Active; zone of inhibition at 500 µg/mL (Aspergillus flavus [2]): 3 mm; zone of inhibition at 750 µg/mL (Aspergillus flavus [3]): 2 mm; zone of inhibition at 1000 µg/mL (Aspergillus flavus [4]): 8 mm; zone of inhibition at 1000 µg/mL (Escherichia coli [25]): 8 mm
3 | Cc1ccc2[nH]c(-c3ccccc3)c(C3C=C(c4ccccc4)Oc4[nH]c(=S)nc(N)c43)c2c1 (centres undefined) | 9 mm | 8 mm | 8 mm | 3 mm | 3 mm | 3 mm | 4 mm | 3 mm | 8 mm | 9 mm | 8 mm | 8 mm | 5 mm | 4 mm | 4 mm | 10 mm | 9 mm | 9 mm | 8 mm | 8 mm | Activity [1]: Active; zone of inhibition at 500 µg/mL (Aspergillus flavus [2]): 9 mm; zone of inhibition at 750 µg/mL (Aspergillus flavus [3]): 6 mm; zone of inhibition at 1000 µg/mL (Aspergillus flavus [4]): 5 mm; zone of inhibition at 1000 µg/mL (Escherichia coli [25]): 8 mm
4 | Cc1ccc2[nH]c(-c3ccccc3)c(C3C=C(c4ccccc4)Oc4nc5oc(=O)c(C#N)c(N)c5c(N)c43)c2c1 (centres undefined) | 9 mm | 4 mm | 4 mm | 11 mm | 8 mm | 8 mm | 10 mm | 10 mm | 10 mm | 3 mm | 3 mm | 0 mm | 4 mm | 4 mm | 4 mm | 9 mm | 8 mm | 4 mm | 10 mm | 9 mm | Activity [1]: Active; zone of inhibition at 500 µg/mL (Aspergillus flavus [2]): 5 mm; zone of inhibition at 750 µg/mL (Aspergillus flavus [3]): 0 mm; zone of inhibition at 1000 µg/mL (Escherichia coli [25]): 5 mm
5 | N#Cc1c(N)c2c(N)c3c(nc2oc1=O)OC(c1ccccc1)=CC3c1c(-c2ccccc2)[nH]c2ccc(Cl)cc12 (centres undefined) | 3 mm | 3 mm | 3 mm | 12 mm | 12 mm | 13 mm | 9 mm | 9 mm | 10 mm | 9 mm | 8 mm | 5 mm | 5 mm | 5 mm | 5 mm | 13 mm | 13 mm | 14 mm | 10 mm | 10 mm | Activity [1]: Active; zone of inhibition at 500 µg/mL (Aspergillus flavus [2]): 5 mm; zone of inhibition at 750 µg/mL (Aspergillus flavus [3]): 3 mm; zone of inhibition at 1000 µg/mL (Escherichia coli [25]): 8 mm
6 | CN[C@@H]1[C@H](O[C@H]2[C@H](O[C@H]3[C@H](O)[C@@H](O)[C@H](N=C(N)N)[C@@H](O)[C@@H]3N=C(N)N)O[C@@H](C)[C@]2(O)C=O)O[C@@H](CO)[C@H](O)[C@H]1O [STREPTOMYCIN] | – | – | – | – | – | – | – | – | – | 13 mm | 13 mm | 14 mm | 14 mm | 14 mm | 14 mm | 15 mm | 15 mm | 15 mm | 14 mm | 14 mm | zone of inhibition at 1000 µg/mL (Escherichia coli [25]): 15 mm
7 | N#Cc1c(N)c2c(N)c3c(nc2oc1=O)OC(c1ccccc1)=CC3c1c(-c2ccccc2)[nH]c2ccccc12 (centres undefined) | 5 mm | 5 mm | 5 mm | 11 mm | 11 mm | 11 mm | 5 mm | 3 mm | 10 mm | 5 mm | 7 mm | 3 mm | 11 mm | 11 mm | 10 mm | 10 mm | 10 mm | 9 mm | 8 mm | 8 mm | Activity [1]: Active; zone of inhibition at 500 µg/mL (Aspergillus flavus [2]): 5 mm; zone of inhibition at 750 µg/mL (Aspergillus flavus [3]): 3 mm; zone of inhibition at 1000 µg/mL (Escherichia coli [25]): 10 mm
8 | OC(Cn1cncn1)(Cn1cncn1)c1ccc(F)cc1F [FLUCONAZOLE] | 13 mm | 14 mm | 14 mm | 13 mm | 14 mm | 14 mm | 13 mm | 13 mm | 14 mm | – | – | – | – | – | – | – | – | – | – | – | zone of inhibition at 500 µg/mL (Aspergillus flavus [2]): 13 mm; zone of inhibition at 750 µg/mL (Aspergillus flavus [3]): 13 mm; zone of inhibition at 1000 µg/mL (Aspergillus flavus [4]): 14 mm
9 | N#CC1=C(N)OC(c2ccc(Cl)cc2)=CC1c1c(-c2ccccc2)[nH]c2ccccc12 (centres undefined) | 12 mm | 13 mm | 13 mm | 9 mm | 9 mm | 3 mm | 8 mm | 6 mm | 5 mm | 10 mm | 8 mm | 8 mm | 2 mm | 2 mm | 2 mm | 10 mm | 10 mm | 10 mm | 5 mm | 5 mm | Activity [1]: Active; zone of inhibition at 1000 µg/mL (Aspergillus flavus [4]): 2 mm; zone of inhibition at 1000 µg/mL (Escherichia coli [25]): 3 mm
